# Measurements reported in patent US9409952B2, “Peptide-compound cyclization method” (Chugai Seiyaku Kabushiki Kaisha, priority 2011, dated 2016).
# Where two headings read alike, the source gives them in different places. Starred links: 1 amine or outer side, 2 acyl side, 3 side chain; linkers in the order of their positions; H or OH if unused. Positions of bridges follow the written chain, without caps; N, C: chain ends. Non-standard residues stand in square brackets, D forms with d. Residues, ends and D or L forms follow the SMILES beside them. ξ: configuration not given here. *: point of attachment. NMeF = CN[C@@H](Cc1ccccc1)C(=O)O; NMeGABA = CN(CCCC(=O)[*:2])[*:1]; NMeβAla = CN(CCC(=O)[*:2])[*:1]; NMeL = CN[C@@H](CC(C)C)C(=O)O; NMeA = CN[C@@H](C)C(=O)O; Piperidide = C1CCN(*)CC1; ξP = O=C(O)C1CCCN1; Sar = CNCC(=O)O; tBu = CC(C)(C)*
# Tests used:
# [1] = PAMPA (parallel artificial membrane permeability assay); type: in vitro ADME; details: PAMPA
# In short: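 Artificial membrane was 10% (w/v) egg lecithin plus 0.5% (w/v) cholesterol in dodecane on a PVDF filter. A 10 mM DMSO stock was added at 0.5% (v/v) to donor buffer (50 mM MOPSO, pH 6.5, 5.0% glycocholic acid). After 18 h at 37 °C, LC/MS or LC/UV gave donor and acceptor levels for Pe.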
# [2] = Metabolic stability in human hepatic microsome; type: in vitro ADME; details: microsomes
# [3] = membrane permeation rate (Pe), 50 mM MOPSO buffer pH 6.5 with 5.0% glycocholic acid, 37° C., 18 hours, read-out: iPAMPA Pe
# [4] = pH 7.4, human hepatic microsome, NADPH(+), read-out: CL NADPH(+)
SMILES,"Papp at 18 hours, 50 µM [1, 3] [×10⁻⁶ cm/s]","microsomal CLint at 1 uM [2, 4] [µL/min/mg]","Papp at 18 hours, 50 µM ([1]; pH 6.5) [×10⁻⁶ cm/s]","microsomal CLint at 1 uM ([2]; human, pH 7.4, CL NADPH(+)) [µL/min/mg]"
CC(C)C[C@@H]1NC(=O)[C@H](Cc2ccccc2)N(C)C(=O)[C@@H](C(C)C)NC(=O)C[C@@H](C(=O)N2CCCCC2)NC(=O)[C@H](Cc2ccccc2)NC(=O)[C@H](CC(C)C)N(C)C(=O)[C@H]([C@@H](C)O)NC(=O)[C@H](CC(C)C)N(C)C1=O [DP-703] ([dV][NMeF]L[NMeL]T[NMeL]FD-Piperidide; lactam N-8),34,222,–,–
CC(C)C[C@H]1C(=O)N[C@H](C(=O)N2CCCCC2)CC(=O)N(C)CCC(=O)N[C@@H]([C@@H](C)O)C(=O)N(C)[C@@H](C)C(=O)N[C@@H](COC(C)(C)C)C(=O)N(C)[C@@H](Cc2ccccc2)C(=O)N(C)[C@@H](CC(C)C)C(=O)N1C [DP-704] ([NMeβAla]T[NMeA]S(tBu)[NMeF][NMeL][NMeL]D-Piperidide; lactam N-8),29,83,–,–
CC(C)C[C@H]1C(=O)N(C)[C@@H](CC(C)C)C(=O)N[C@@H]([C@@H](C)O)C(=O)N(C)[C@@H](Cc2ccccc2)C(=O)N[C@@H](COC(C)(C)C)C(=O)N(C)[C@@H](CC(C)C)C(=O)N[C@H](C(=O)N2CCCCC2)CC(=O)N(C)CCC(=O)N1C [DP-705] ([NMeβAla][NMeL][NMeL]T[NMeF]S(tBu)[NMeL]D-Piperidide; lactam N-8),49,265,–,–
CC(C)C[C@@H]1NC(=O)[C@H](CC(C)C)N(C)C(=O)[C@H](CC(C)C)N(C)C(=O)C[C@@H](C(=O)N2CCCCC2)NC(=O)[C@H](Cc2ccccc2)N(C)C(=O)C2CCCN2C(=O)[C@H]([C@@H](C)O)NC(=O)[C@H](Cc2ccccc2)N(C)C1=O (stereo partly drawn) [DP-706] ([NMeL][NMeL]L[NMeF]T[ξP][NMeF]D-Piperidide; lactam N-8),–,–,48,264
CC(C)C[C@H]1C(=O)N[C@@H](COC(C)(C)C)C(=O)N[C@H](C(=O)N2CCCCC2)CC(=O)N(C)[C@@H](C)C(=O)N(C)[C@@H](Cc2ccccc2)C(=O)N(C)[C@@H](CC(C)C)C(=O)N[C@@H]([C@@H](C)O)C(=O)N(C)[C@@H](C)C(=O)N1C [DP-707] ([NMeA][NMeF][NMeL]T[NMeA][NMeL]S(tBu)D-Piperidide; lactam N-8),29,84,–,–
CC(C)C[C@H]1C(=O)N[C@H](C(=O)N2CCCCC2)CC(=O)N[C@H](C)C(=O)N(C)[C@@H](Cc2ccccc2)C(=O)N(C)[C@@H](CC(C)C)C(=O)N[C@@H]([C@@H](C)O)C(=O)N(C)[C@@H](C)C(=O)N[C@@H](COC(C)(C)C)C(=O)N1C [DP-708] ([dA][NMeF][NMeL]T[NMeA]S(tBu)[NMeL]D-Piperidide; lactam N-8),16,35,–,–
CC(C)C[C@H]1C(=O)N[C@@H](COC(C)(C)C)C(=O)N[C@H](C(=O)N2CCCCC2)CC(=O)N(C)CC(=O)N[C@@H]([C@@H](C)O)C(=O)N(C)[C@@H](C)C(=O)N(C)[C@@H](Cc2ccccc2)C(=O)N(C)[C@@H](Cc2ccccc2)C(=O)N1C [DP-709] ([Sar]T[NMeA][NMeF][NMeF][NMeL]S(tBu)D-Piperidide; lactam N-8),35,90,–,–
CC(C)C[C@H]1C(=O)N(C)[C@@H](Cc2ccccc2)C(=O)N[C@H](C(=O)N2CCCCC2)CC(=O)N(C)[C@@H](C)C(=O)N[C@@H]([C@@H](C)O)C(=O)N(C)CC(=O)N[C@@H](COC(C)(C)C)C(=O)N(C)[C@@H](Cc2ccccc2)C(=O)N1C [DP-710] ([NMeA]T[Sar]S(tBu)[NMeF][NMeL][NMeF]D-Piperidide; lactam N-8),44,121,–,–
CC(C)C[C@H]1C(=O)N[C@@H](COC(C)(C)C)C(=O)N[C@H](C(=O)N2CCCCC2)CC(=O)N[C@@H](C)C(=O)N(C)[C@@H](Cc2ccccc2)C(=O)N(C)CC(=O)N(C)[C@@H](Cc2ccccc2)C(=O)N[C@@H]([C@@H](C)O)C(=O)N1C [DP-711] (A[NMeF][Sar][NMeF]T[NMeL]S(tBu)D-Piperidide; lactam N-8),29,217,–,–
CC(C)C[C@H]1C(=O)N(C)[C@@H](Cc2ccccc2)C(=O)N[C@H](C(=O)N2CCCCC2)CC(=O)N(C)CCCC(=O)N(C)[C@@H](C)C(=O)N(C)[C@@H](CC(C)C)C(=O)N[C@@H]([C@@H](C)O)C(=O)N(C)CC(=O)N1C [DP-712] ([NMeGABA][NMeA][NMeL]T[Sar][NMeL][NMeF]D-Piperidide; lactam N-8),12,57,–,–
CC(C)C[C@@H]1NC(=O)[C@H](CC(C)C)N(C)C(=O)[C@H](Cc2ccccc2)N(C)C(=O)[C@H]([C@@H](C)O)NC(=O)[C@H](CC(C)C)N(C)C(=O)CN(C)C(=O)CCCN(C)C(=O)C[C@@H](C(=O)N2CCCCC2)NC1=O [DP-713] ([NMeGABA][Sar][NMeL]T[NMeF][NMeL]LD-Piperidide; lactam N-8),27,169,–,–
CC(C)C[C@@H]1NC(=O)[C@H](CC(C)C)N(C)C(=O)[C@H]([C@@H](C)O)NC(=O)[C@H](Cc2ccccc2)N(C)C(=O)CN(C)C(=O)[C@H](CC(C)C)N(C)C(=O)[C@@H](C(C)C)NC(=O)C[C@@H](C(=O)N2CCCCC2)NC1=O [DP-714] ([dV][NMeL][Sar][NMeF]T[NMeL]LD-Piperidide; lactam N-8),31,145,–,–
CC(C)C[C@@H]1NC(=O)[C@H](CC(C)C)N(C)C(=O)[C@H]([C@@H](C)O)NC(=O)CCCN(C)C(=O)C[C@@H](C(=O)N2CCCCC2)NC(=O)[C@H](COC(C)(C)C)NC(=O)[C@H](Cc2ccccc2)N(C)C1=O [DP-715] ([NMeGABA]T[NMeL]L[NMeF]S(tBu)D-Piperidide; lactam N-7),24,134,–,–
CC(C)C[C@@H]1NC(=O)CCCN(C)C(=O)C[C@@H](C(=O)N2CCCCC2)NC(=O)[C@H](Cc2ccccc2)N(C)C(=O)[C@H]([C@@H](C)O)NC(=O)[C@H](CC(C)C)N(C)C(=O)[C@H](COC(C)(C)C)NC1=O [DP-716] ([NMeGABA]LS(tBu)[NMeL]T[NMeF]D-Piperidide; lactam N-7),21,133,–,–
CC(C)C[C@H]1C(=O)N[C@@H]([C@@H](C)O)C(=O)N(C)[C@@H](CC(C)C)C(=O)N(C)CC(=O)N(C)[C@@H](Cc2ccccc2)C(=O)N[C@@H](COC(C)(C)C)C(=O)N[C@H](C(=O)N2CCCCC2)CC(=O)N1C [DP-717] ([NMeL]T[NMeL][Sar][NMeF]S(tBu)D-Piperidide; lactam N-7),21,101,–,–
CC(C)C[C@@H]1NC(=O)C[C@@H](C(=O)N2CCCCC2)NC(=O)[C@H](COC(C)(C)C)NC(=O)[C@H]([C@@H](C)O)NC(=O)[C@H](Cc2ccccc2)N(C)C(=O)[C@H](CC(C)C)N(C)C(=O)CN(C)C1=O [DP-718] (L[Sar][NMeL][NMeF]TS(tBu)D-Piperidide; lactam N-7),17,99,–,–
CC(C)C[C@H]1C(=O)N(C)[C@@H](CC(C)C)C(=O)N(C)[C@@H](Cc2ccccc2)C(=O)N[C@H](C(=O)N2CCCCC2)CC(=O)N[C@@H](C(C)C)C(=O)N(C)CC(=O)N[C@@H]([C@@H](C)O)C(=O)N1C [DP-719] (V[Sar]T[NMeL][NMeL][NMeF]D-Piperidide; lactam N-7),26,218,–,–
CC(C)C[C@@H]1NC(=O)[C@H]([C@@H](C)O)NC(=O)[C@H](CC(C)C)N(C)C(=O)CN(C)C(=O)[C@H](Cc2ccccc2)N(C)C(=O)[C@H](C(C)C)NC(=O)C[C@@H](C(=O)N2CCCCC2)NC1=O [DP-720] (V[NMeF][Sar][NMeL]TLD-Piperidide; lactam N-7),16,62,–,–
CC(C)C[C@H]1C(=O)N(C)[C@@H](CC(C)C)C(=O)N[C@H](C(=O)N2CCCCC2)CC(=O)N[C@H](C)C(=O)N(C)[C@@H](Cc2ccccc2)C(=O)N(C)[C@@H](CC(C)C)C(=O)N[C@@H]([C@@H](C)O)C(=O)N1C [DP-721] ([dA][NMeF][NMeL]T[NMeL][NMeL]D-Piperidide; lactam N-7),49,915,–,–
CC(C)C[C@@H]1NC(=O)[C@H]([C@@H](C)O)NC(=O)[C@H](CC(C)C)N(C)C(=O)[C@H](Cc2ccccc2)N(C)C(=O)[C@H](CC(C)C)N(C)C(=O)C[C@@H](C(=O)N2CCCCC2)NC(=O)[C@H](CC(C)C)N(C)C1=O [DP-722] ([NMeL][NMeF][NMeL]TL[NMeL]D-Piperidide; lactam N-7),45,311,–,–
CC(C)C[C@@H]1NC(=O)[C@H]([C@@H](C)O)NC(=O)[C@H](CC(C)C)N(C)C(=O)CN(C)C(=O)[C@H](Cc2ccccc2)N(C)C(=O)[C@H](CC(C)C)NC(=O)C[C@@H](C(=O)N2CCCCC2)NC1=O [DP-723] (L[NMeF][Sar][NMeL]TLD-Piperidide; lactam N-7),26,154,–,–
CC(C)C[C@H]1C(=O)N[C@@H](COC(C)(C)C)C(=O)N(C)CC(=O)N[C@@H]([C@@H](C)O)C(=O)N[C@H](C(=O)N2CCCCC2)CC(=O)N[C@@H](C(C)C)C(=O)N(C)[C@@H](Cc2ccccc2)C(=O)N1C [DP-724] (V[NMeF][NMeL]S(tBu)[Sar]TD-Piperidide; lactam N-7),20,160,–,–
